The values below come from patent US20150265680A1, “THERAPEUTIC AGENT FOR AMYOTROPHIC LATERAL SCLEROSIS” (DAIICHI SANKYO COMPANY, LIMITED, priority 2012, published 2015).

Marks after values point to notes of the source that are not given here. Where a SMILES comes first, the peptide text is derived from it. Where no end group is shown, it is not given here. [ ]: non-standard residue; d: D form. The star is where a group is joined. d2Nal = N[C@H](Cc1ccc2ccccc2c1)C(=O)O; Octanoyl = CCCCCCCC(=O)*

Assay [1] has as its system SOD1^G93A mice. Kind of assay: Repeated subcutaneous GHRP-6 or anamorelin from the age of 10 weeks: body weight, food intake, survival (Example 9). Format: in vivo, mouse. To be noted: mean ± SE; for Survival period: 1 mg/kg subcutaneously twice a day from age 10 weeks until death; for Amount of change in body weight / Food intake: 1 mg/kg subcutaneously twice a day from age 10 weeks, after 5-weeks of administration. As to the method: In the experiment, 10-week-old SOD1^G93A mice were used, which were divided into 3 groups: a vehicle group, a GHRP-6 group, and an anamorelin group. GHRP-6 (1 mg/kg), anamorelin (1 mg/kg), or a vehicle (5% mannitol solution) was subcutaneously administered thereto twice a day from the age of 10 weeks until death. Their body weight and feed weight were measured before the start of administration and after 5-weeks of administration to calculate the amount of change in body weight and food intake. The survival period of each individual was also analyzed.

The subject of assay [2] is rat adrenal pheochromocytoma-derived PC-12 cells. To be noted: cited from earlier work.
Assay [3] has as its system SOD1^G93A mice. Kind of assay: Continuous subcutaneous human ghrelin from the age of 10 weeks: body weight, food intake, skeletal muscle mass, cholesterol, muscle strength, survival (Example 3). Format: in vivo, mouse. As for the experimental part:
In some Examples, the WT mice were also used.
(§1) In the experiment, 10-week-old SOD1^G93A mice were used, which were divided into 2 groups: a vehicle group and a human ghrelin group. Human ghrelin (50 μg/day, approximately 2 mg/kg/day) was dissolved in a vehicle (saline solution) to prepare a dosing solution. An osmotic pump (ALZET® MINI-OSMOTIC PUMP MODEL 1004, DURECT Corporation) filled with the dosing solution or a saline solution was subcutaneously implanted into the back of each mouse for continuous subcutaneous administration. The administration was started from the age of 10 weeks and continued to the live individuals with the osmotic pump replaced with a fresh one every 4 weeks.
Their body weight and feed weight was measured before the start of administration and after 8-weeks of administration to calculate the amount of change in body weight and the food intake. After 8-weeks of administration, the lower-body skeletal muscle masses of the mice were measured using X-ray CT (Latheta LCT-200, Hitachi Aloka Medical, Ltd.). The plasma total cholesterol concentrations were measured with Cholesterol E—Test Wako (Wako Pure Chemical Industries, Ltd.) using plasma separated from blood collected from the tail vein after 8-weeks of administration. The forelimb muscle strengths were measured using a rat/mouse simple sthenometer; 200 g scale (O'HARA & CO., LTD.) on the 16th week of age. The survival period of each individual was also analyzed.

In assay [4] the test system is SOD1^G93A mice. Kind of assay: Motor neuron protective effect of continuous subcutaneous human ghrelin, Nissl-stained T9 spinal cord sections (Example 4). To be noted: relative to WT control group = 100%; 50 μg/day continuous subcutaneous, 7 weeks after start, T9 anterior horn; mean ± SE. Format: in vivo, mouse. As for the experimental part:
In the experiment, 10-week-old SOD1^G93A and WT mice were used. […] Vehicle-administered WT mice were used as a control group. Human ghrelin (50 μg/day, approximately 2 mg/kg/day) was dissolved in a vehicle (saline solution) to prepare a dosing solution. An osmotic pump (ALZET® MINI-OSMOTIC PUMP MODEL 1004, DURECT Corporation) filled with the dosing solution or a saline solution was subcutaneously implanted into the back of each mouse for continuous subcutaneous administration. The administration was started from the age of 10 weeks and continued after replacement of the osmotic pump with a fresh one 4 weeks later. Seven weeks after the start of administration, the mice were anatomized, and the T9 regions of their spinal cords were extracted. Nissl-stained sections were prepared, and the number of motor neurons was histologically identified. Three non-adjacent sections were used per individual to measure the number of motor neurons present in the anterior horn. The measurement value of each group was calculated as a relative value when the average number of motor neurons in the control group was defined as 100%.

For assay [5], the system named is SOD1^G93A mice. Kind of assay: Repeated subcutaneous human ghrelin from the age of 10 weeks: body weight, food intake, muscle strength, survival (Example 5). Format: in vivo, mouse. As for the experimental part:
In the experiment, 10-week-old SOD1^G93A mice were used, which were divided into 2 groups: a vehicle group and a human ghrelin group. Human ghrelin (1 mg/kg) or a vehicle (5% mannitol solution) was subcutaneously administered thereto twice a day from the age of 10 weeks until death. Their body weights and feed weights were measured before the start of administration and after 8-weeks of administration to calculate the amount of change in body weights and the food intakes. The forelimb muscle strengths were measured using a rat/mouse simple sthenometer; 200 g scale (O'HARA & CO., LTD.) before the start of administration and after 8-weeks of administration. The survival period of each individual was also analyzed.

For assay [6], the system named is SOD1^G93A mice. Briefly: Continuous subcutaneous human ghrelin under restricted feeding: body weight, skeletal muscle, motor neurons, muscle strength (Example 6). The format is in vivo, mouse. To be noted: 50 μg/day continuous subcutaneous. From the text:
In this Example, SOD1^G93A mice were raised under restricted feeding by which the daily food intake of the SOD1^G93A mice under voluntary intake conditions was set to approximately 90%. […] The administered ghrelin was examined for its effects on body weight, skeletal muscle mass, muscle strength, the number of motor neurons, and mRNA expression of Atrogin-1 and Muscle RING-finger protein-1 (MuRF1), which are both involved in skeletal muscle wasting.
(§2) In the experiment, 10-week-old SOD1^G93A and WT mice were used. The WT mice were divided into 2 group, one of which was raised under voluntary intake conditions (WT-control group) and the other of which was given 2.8 to 2.9 g/day which corresponded to approximately 90% of the daily food intake under voluntary intake conditions of the SOD1^G93A mice (WT-restricted feeding group).
(§3) Human ghrelin (50 μg/day, approximately 2 mg/kg/day) was dissolved in a vehicle (saline solution) to prepare a dosing solution. An osmotic pump (ALZET® MINI-OSMOTIC PUMP MODEL 1004, DURECT Corporation) filled with the dosing solution or a saline solution was subcutaneously implanted into the back of each mouse for continuous subcutaneous administration. The administration was started from the age of 10 weeks, and the osmotic pump was replaced with a fresh one 4 weeks later.
Their body weights were measured at the start day of administration and after 6 weeks to calculate the amount of change in body weight.
The forelimb muscle strength was measured using a rat/mouse simple sthenometer; 200 g scale (O'HARA & CO., LTD.) 7 weeks after the start of administration.
The lower-body skeletal muscle masses of the mice were measured using X-ray CT (Latheta LCT-200, Hitachi Aloka Medical, Ltd.) before the start of administration (at the age of 10 weeks) and after 7 weeks to determine the amount of change in skeletal muscle mass.
Then, the mice were anatomized, and the T9 regions of their spinal cords were extracted. Nissl-stained sections were prepared, and the number of motor neurons was histologically identified. Three non-adjacent sections were used per individual to measure the number of motor neurons present in the anterior horn. The measurement value of each group was calculated as a relative value when the average number of motor neurons in the WT-control group was defined as 100%.

The subject of a further assay is Atrogin-1 mRNA. Kind of assay: Atrogin-1 mRNA expression in gastrocnemial muscle by quantitative PCR under restricted feeding (Example 6). The format is in vivo, mouse. Particulars: relative to WT-control group = 100%, 7 weeks after start. As for the experimental part:
as §2, §3
(§4) The gastrocnemial muscles were isolated, and after mRNA extraction, the Atrogin-1 and MuRF1 mRNA expression levels were measured by quantitative PCR. The measurement value of each group was calculated as a relative value when the average mRNA expression level in the WT-control group was defined as 100%.

The test system of another assay is MuRF1 mRNA. Briefly: MuRF1 mRNA expression in gastrocnemial muscle by quantitative PCR under restricted feeding (Example 6). The format is in vivo, mouse. To be noted: relative to WT-control group = 100%, 7 weeks after start. As for the experimental part:
as §2, §3, §4

Assay [7] concerns SOD1^G93A mice. Kind of assay: Survival period with continuous subcutaneous human ghrelin from the age of 16 weeks (Example 8). Format: in vivo, mouse. Particulars: 50 μg/day continuous subcutaneous from age 16 weeks. As to the method:
as §1, with “experiment, 16-week-old” for “experiment, 10-week-old”, “of 16” for “of 10”, “weeks. The survival period of each individual was analyzed.” for “weeks.”

Setting [8] is: 50 μg/day continuous subcutaneous from age 10 weeks, after 8-weeks of administration, mean ± SE.
[9] abbreviates: 1 mg/kg subcutaneously twice a day from age 10 weeks, after 8-weeks of administration, mean ± SE.

As to `CN(C)N(C)C(=O)[C@@]1(Cc2ccccc2)CCCN(C(=O)[C@@H](Cc2c[nH]c3ccccc23)NC(=O)C(C)(C)N)C1` [Anamorelin, 2-Amino-N-{(1R)-2-[3-benzyl-3-(N,N′,N′-trimethylhydrazinocarbonyl)piperidin-1-yl]-1-((1H-indol-3-yl)-2-oxoethyl)-2-methylpropionamide}], in the assay with SOD1^G93A mice [1], the Survival period is 136 ± 2 (31) day, the “Amount of change in body weight” value is listed as 0.9 ± 0.2 (31) g and the Food intake is given as 139.5 ± 2.5 (31) g.

In the case of `C[C@H](NC(=O)[C@@H](Cc1c[nH]c2ccccc12)NC(=O)[C@@H](N)Cc1c[nH]cn1)C(=O)N[C@@H](Cc1c[nH]c2ccccc12)C(=O)N[C@H](Cc1ccccc1)C(=O)N[C@@H](CCCCN)C(N)=O` [GHRP-6, L-Histidyl-D-tryptophyl-L-alanyl-L-tryptophyl-D-phenylalanyl-L-lysinamide] (H-H[dW]AW[dF]K-NH2), in the assay on SOD1^G93A mice [1], the Survival period is 138 ± 2 (30) day, the “Amount of change in body weight” value is given as 1.9 ± 0.2 (30) g and the Food intake is 142.7 ± 2.1 (30) g.

On to `C[C@H](NC(=O)[C@@H](Cc1ccc2ccccc2c1)NC(=O)[C@@H](C)N)C(=O)N[C@@H](Cc1c[nH]c2ccccc12)C(=O)N[C@H](Cc1ccccc1)C(=O)N[C@@H](CCCCN)C(N)=O` [Pralmorelin, D-Alanyl-D-(2-naphthyl)alanyl-L-alanyl-L-tryptophyl-D-phenylalanyl-L-lysinamide] (H-[dA][d2Nal]AW[dF]K-NH2), for which the “Increase of the proportion of PC-12 cells having dendrites and axons 1.5 times larger than the size of the cells, compared with a control group” value in assay [2] is reported as “approximately 1.2 times”.

Take “Human ghrelin: peptide of 28 amino acids (SEQ ID NO: 1), hydroxy group of the 3rd residue (serine) acylated with n-octanoyl group; endogenous GHS-R ligand (GSS(Octanoyl)FLSPEHQRVQQRKESKKPPAKLQPR; listed as Homo sapiens)”: the “Survival period longer on average than the survival days of the vehicle group” value in the assay with SOD1^G93A mice [3] (50 μg/day continuous subcutaneous from age 10 weeks) is given as 13.8%; with SOD1^G93A mice [5] (1 mg/kg subcutaneously twice a day from age 10 weeks), 21.8%; in the assay on SOD1^G93A mice [7], 17.6%. For the same compound, the “Amount of change in body weight” value is listed as 2.6 ± 0.4 (15) g in the assay on SOD1^G93A mice [3] (setting [8]); 2.1 ± 0.4 (13) g with SOD1^G93A mice [5] (setting [9]); −1.4 ± 0.7**^,## g with SOD1^G93A mice [6] (restricted feeding 2.8 to 2.9 g/day, 6 weeks after start). For the same compound, the Food intake in the assay on SOD1^G93A mice [3] (setting [8]) is recorded as 188.2 ± 3.6 (15) g; in the assay with SOD1^G93A mice [5] (setting [9]) it was 176.2 ± 3.5 (13) g. Further, the Survival period in the assay with SOD1^G93A mice [3] (50 μg/day continuous subcutaneous from age 10 weeks, mean ± SE) is given as 173 ± 4 (15) day; in the assay with SOD1^G93A mice [5] (1 mg/kg subcutaneously twice a day from age 10 weeks until death, mean ± SE), 179 ± 8 (13) day; with SOD1^G93A mice [7] (mean ± SE), 180 ± 11 (9) day. The Forelimb muscle strength in the assay on SOD1^G93A mice [3] (50 μg/day continuous subcutaneous, after 6-weeks of administration (16th week of age), mean ± SE) is 0.96 ± 0.05 (15) N; with SOD1^G93A mice [6] (restricted feeding, 7 weeks after start), 0.77 ± 0.06 N. Moreover, the “Lower-body skeletal muscle mass” value with SOD1^G93A mice [3] (50 μg/day continuous subcutaneous, after 8-weeks of administration, X-ray CT, mean ± SE) is 5.7 ± 0.3 (15) g. Further, the “Plasma total cholesterol concentration” value with SOD1^G93A mice [3] (50 μg/day continuous subcutaneous, after 8-weeks of administration, mean ± SE) is 85.8 ± 4.0 (15) mg/dL. The “The number of motor neurons” value with SOD1^G93A mice [4] is on record as 84 ± 7 (7)*^,## %; in the assay with SOD1^G93A mice [6] (relative to WT-control group = 100%, restricted feeding, T9 anterior horn), 66 ± 5 %. The “Change in forelimb muscle strength” value in the assay with SOD1^G93A mice [5] (1 mg/kg subcutaneously twice a day, from age 10 weeks to after 8-weeks of administration, mean ± SE) is on record as −0.08 ± 0.07 (13) N. Also, the “Amount of change in lower-body skeletal muscle” value with SOD1^G93A mice [6] (restricted feeding, 7 weeks after start, X-ray CT) was −0.9 ± 0.2**^,# g. Also, the “Atrogin 1 mRNA expression level” value in the assay with Atrogin-1 mRNA is 205 ± 34 %. Moreover, the “MuRF1 mRNA expression level” value with MuRF1 mRNA is given as 207 ± 36 %.
